Experimental data taken from patent US20030166715A1, “Use of vitaletheine modulators in the prophylaxis and treatment of disease” (priority 1990, published 2003).

What was measured:
[1] = tested on: Cloudman S-91 murine melanoma cells; assay: Treatment of murine Cloudman S-91 melanoma in mice, tumor volume; format: in vivo, mouse
Procedure: This regimen is predicated on the observation that certain enzymes thought to be responsive to these compounds, and which may pay a role in the reported results, are induced 48 hours after chemical stimulation. […] Data presented is calculated from measured tumor diameters, including mice with no tumor. Error bars indicate standard error of the mean.
Cloudman S-91 murine melanoma cells (American Type Culture Collection #53.1, Clone M-3) from a (C X DBA)F1 male mouse were grown in 75 ml flasks (Corning Glass Works, Corning, N.Y., USA) containing Ham's F12 medium supplemented with 15% fetal bovine serum, penicillin (100 U/ml), and streptomycin (100 μg/ml), all commercially available from Sigma Chemical Company, St. Louis, Mo., USA. Cultures were incubated at 37° C. under 5.5% carbon dioxide initially at 6×10^6 cells per ml for two days, with a medium change after one day. Cultures were then trypsinized, split into two fresh flasks at one half the cell density, above, and maintained for one week prior to injection in female (DBA X BALB c) mice (CD2F1/Hsd from Harlan Sprague Dawley, Inc., Indianapolis, Ind., USA). For inoculation, cells were first trypsinized, washed 3 times in phosphate buffered saline, and diluted to 1×10^5 cells/100 μl phosphate buffered saline prior to subcutaneous injection in the flank.
The compounds were dissolved in water, filtered through an appropriate sterilizing filter (0.22 μm non-pyrogenic, μ Star LB™ from Costar®, Cambridge, Mass., USA), diluted to the desired concentration in sterile, physiological saline (0.1 ml), and injected intraperitoneally with a 27 gauge, ⅜ inch allergy syringe (Becton Dickinson, Rutherford, N.J., USA); by gently lifting the skin on the abdomen of supine mice and injecting horizontally, puncture of peritoneal organs is avoided, thereby minimizing trauma to the mice.

human BFU-E = assay: Modulation of erythropoiesis: colony formation from human BFU-E in plasma clot culture; format: cell-based; conditions: 18 h initial incubation with vitalethine; compared with levels initially containing erythropoietin (FIG. 3a)
Excerpt: (§1) Colony formation from the early murine progenitors not exposed to vitalethine, and either initially exposed to or initially deprived of erythropoietin are represented by upper and lower triangles, respectively. […] Bars are standard error of the mean.
(§2) Human bone marrow cells were obtained as surplus from experiments performed on material aspirated from normal volunteers with IRB approval and informed written consent. Peripheral blood cells were obtained from commercially purchased buffy coats or surgical waste (umbilical cord blood). Mouse bone marrow was flushed from femurs and obtained as surplus from experiments performed on C57B1/6 mice with animal committee approval. Human light density cells were separated by centrifugation over Ficoll-daitrizoate (SG 1.075) and depleted of adherent cells by incubation on serum coated plastic. Mouse cells were used without further fractionation. […] One unit per ml of erythropoietin and medium without added factors served as positive and negative controls. Initial incubations were carried out for 18 hours at 37° . […]

CFU-E progenitors = assay: Modulation of erythropoiesis: colony formation from CFU-E progenitors in plasma clot culture; format: cell-based, murine; conditions: depending upon concentration (FIG. 3a)
Excerpt: as §1, §2

CFU-E and BFU-E = assay: Modulation of erythropoiesis: stimulation of colony formation synergistically with erythropoietin (FIG. 3a/3b); format: cell-based
Excerpt: as §1, §2

## O=C(O)NCCC(=O)NCCSSCCNC(=O)CCNC(=O)O [vitalethine, N,N′-(dithiodi-2,1-ethanediyl)-bis-(3-carboxyamino-propan-amide)]
[1]; 100 pg/kg mouse (FIG. 1b)
  average tumor volume: diminishes average tumor volume substantially
[1]; 10 femtogram/kg mouse intraperitoneally three times per week, beginning second day after tumor inoculation
  diminution of tumor volume compared to saline controls: ~70%
[1]; 10 fg/kg mouse (FIG. 1a)
  average tumor volume: diminishes average tumor volume substantially
Human BFU-E
  colony formation from human BFU-E initially deprived of erythropoietin: increased
CFU-E progenitors
  erythropoiesis from the CFU-E progenitors: either enhances or minimizes erythropoiesis
CFU-E and BFU-E
  concentration necessary for a similar response (stimulation of colony formation): about 10 pg/ml
